The record followed here is patent US8211915B2, “Biphenyl compounds useful as muscarinic receptor antagonists” (Theravance, Inc., priority 2004, dated 2012).

This assay deals with T1, hM3 muscarinic receptor subtype (Homo sapiens, UniProt P20309).
T1 construct: expressed in transfected cells; crude membranes prepared in house
Nature of the assay: Radioligand binding assay ([3H]-NMS displacement). As to conditions: [3H]-NMS 1 nM, CHO cell membranes, 60 minutes at 37° C.; read-out: Ki value for the M3 muscarinic receptor subtype. On the procedure: A. Membrane Preparation from Cells Expressing hM1, hM2, hM3 and hM4 Muscarinic Receptor Subtypes
CHO cell lines stably expressing cloned human hM1, hM2, hM3 and hM4 muscarinic receptor subtypes, respectively, were grown to near confluency in medium consisting of HAM's F-12 supplemented with 10% FBS and 250 μg/mL Geneticin. The cells were grown in a 5% CO2, 37° C. incubator and lifted with 2 mM EDTA in dPBS. Cells were collected by 5 minute centrifugation at 650×g, and cell pellets were either stored frozen at −80° C. or membranes were prepared immediately. For membrane preparation, cell pellets were resuspended in lysis buffer and homogenized with a Polytron PT-2100 tissue disrupter (Kinematica AG; 20 seconds×2 bursts). […] The protein concentration of the membrane suspension was determined by the method described in Lowry, O. et al., […] 193:265 (1951). […]
Radioligand binding assays were performed in 96-well microtiter plates in a total assay volume of 100 μL. […] Filter plates were rinsed three times with wash buffer (10 mM HEPES) to remove unbound radioactivity. […] The plates were then counted in a PerkinElmer Topcount liquid scintillation counter (PerkinElmer Inc., Wellesley, Mass.). Binding data were analyzed by nonlinear regression analysis with the GraphPad Prism Software package (GraphPad Software, Inc., San Diego, Calif.) using the one-site competition model. […]

T1 sequence (P20309 whole entry): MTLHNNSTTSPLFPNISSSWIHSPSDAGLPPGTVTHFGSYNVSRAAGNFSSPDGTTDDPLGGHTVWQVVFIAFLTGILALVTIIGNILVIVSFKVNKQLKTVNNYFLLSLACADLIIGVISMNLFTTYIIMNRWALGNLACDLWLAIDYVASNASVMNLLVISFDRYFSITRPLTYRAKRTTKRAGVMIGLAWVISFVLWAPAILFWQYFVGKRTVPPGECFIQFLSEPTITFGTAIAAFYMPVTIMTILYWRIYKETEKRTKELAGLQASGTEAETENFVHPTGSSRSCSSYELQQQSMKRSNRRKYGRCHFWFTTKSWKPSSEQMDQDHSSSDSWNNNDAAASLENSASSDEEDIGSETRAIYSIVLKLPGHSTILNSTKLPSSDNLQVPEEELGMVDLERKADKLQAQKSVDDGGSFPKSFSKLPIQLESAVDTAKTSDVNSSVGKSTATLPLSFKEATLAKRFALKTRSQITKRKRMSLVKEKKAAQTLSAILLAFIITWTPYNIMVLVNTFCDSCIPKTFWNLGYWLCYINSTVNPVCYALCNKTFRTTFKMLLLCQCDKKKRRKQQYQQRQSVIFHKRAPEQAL

One may read the Ki as the dissociation constant of the complex between target and ligand, obtained from inhibition or displacement. For the compound `NC(=O)C1CCN(Cc2ccc(NC(=O)CCN3CCC(OC(=O)Nc4ccccc4-c4ccccc4)CC3)cc2)CC1` [Example 1, Biphenyl-2-ylcarbamic Acid 1-{2-[4-(4-Carbamoylpiperidin-1-ylmethyl)phenylcarbamoyl]ethyl}piperidin-4-yl Ester], the Ki was less than 5 nM.
